Reference: ChEMBL document CHEMBL5442219

Legend:
Conditions in all cases: Compound concentration 10 µM
[1] = target: D(1B) dopamine receptor (Homo sapiens) (UniProt P21918)
Description: PDSP Primary Binding target: DRD5 - Compounds are tested at 10 uM concentration, plate are incubated at room temperature in the dark for 90 minutes. Reaction are stopped by vacuum filtration onto 0.3% polyethyleneimine soaked filter mats using Filtermate harvester. Scintilation cocktail is then melted onto microwave-dried filters on a hot plate and the radio activity is counted in Microbia counter.

[2] = target: T1, Muscarinic acetylcholine receptor M4 (Homo sapiens) (UniProt P08173)
T1 sequence (whole entry): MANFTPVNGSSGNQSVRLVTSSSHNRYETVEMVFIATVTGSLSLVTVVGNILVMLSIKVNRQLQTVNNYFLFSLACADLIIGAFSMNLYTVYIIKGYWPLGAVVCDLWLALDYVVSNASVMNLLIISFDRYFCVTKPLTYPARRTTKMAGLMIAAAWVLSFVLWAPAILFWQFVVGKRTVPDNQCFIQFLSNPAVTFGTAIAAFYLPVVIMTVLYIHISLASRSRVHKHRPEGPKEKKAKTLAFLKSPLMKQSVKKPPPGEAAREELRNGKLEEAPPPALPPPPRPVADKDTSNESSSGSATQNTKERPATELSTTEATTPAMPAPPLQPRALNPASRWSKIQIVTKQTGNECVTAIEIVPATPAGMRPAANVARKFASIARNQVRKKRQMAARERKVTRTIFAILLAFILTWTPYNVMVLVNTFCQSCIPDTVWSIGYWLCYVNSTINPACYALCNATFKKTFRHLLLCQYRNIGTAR
Description: PDSP Primary Binding target: CHRM4 - Compounds are tested at 10 uM concentration, plate are incubated at room temperature in the dark for 90 minutes. Reaction are stopped by vacuum filtration onto 0.3% polyethyleneimine soaked filter mats using Filtermate harvester. Scintilation cocktail is then melted onto microwave-dried filters on a hot plate and the radio activity is counted in Microbia counter.

[3] = target: T2, Alpha-1D adrenergic receptor (Homo sapiens) (UniProt P25100)
T2 sequence (whole entry): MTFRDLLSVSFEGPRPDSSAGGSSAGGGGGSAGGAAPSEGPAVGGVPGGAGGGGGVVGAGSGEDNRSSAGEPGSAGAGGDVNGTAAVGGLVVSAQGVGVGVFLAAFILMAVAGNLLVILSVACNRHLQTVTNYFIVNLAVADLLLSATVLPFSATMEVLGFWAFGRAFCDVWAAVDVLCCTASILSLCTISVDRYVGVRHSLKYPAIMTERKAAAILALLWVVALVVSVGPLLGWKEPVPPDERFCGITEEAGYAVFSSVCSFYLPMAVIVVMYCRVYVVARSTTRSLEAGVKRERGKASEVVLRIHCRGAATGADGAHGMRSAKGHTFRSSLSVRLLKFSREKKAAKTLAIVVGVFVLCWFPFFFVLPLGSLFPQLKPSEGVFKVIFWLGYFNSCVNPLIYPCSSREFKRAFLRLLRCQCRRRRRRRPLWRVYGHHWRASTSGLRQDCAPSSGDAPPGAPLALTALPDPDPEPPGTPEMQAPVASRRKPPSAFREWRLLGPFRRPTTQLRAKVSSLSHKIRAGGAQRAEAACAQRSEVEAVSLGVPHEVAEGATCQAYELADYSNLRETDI
Description: PDSP Primary Binding target: ADRA1D - Compounds are tested at 10 uM concentration, plate are incubated at room temperature in the dark for 90 minutes. Reaction are stopped by vacuum filtration onto 0.3% polyethyleneimine soaked filter mats using Filtermate harvester. Scintilation cocktail is then melted onto microwave-dried filters on a hot plate and the radio activity is counted in Microbia counter.

[4] = target: Histamine H2 receptor (Homo sapiens) (UniProt P25021)
Sequence of Histamine H2 receptor (Homo sapiens) (P25021 whole entry): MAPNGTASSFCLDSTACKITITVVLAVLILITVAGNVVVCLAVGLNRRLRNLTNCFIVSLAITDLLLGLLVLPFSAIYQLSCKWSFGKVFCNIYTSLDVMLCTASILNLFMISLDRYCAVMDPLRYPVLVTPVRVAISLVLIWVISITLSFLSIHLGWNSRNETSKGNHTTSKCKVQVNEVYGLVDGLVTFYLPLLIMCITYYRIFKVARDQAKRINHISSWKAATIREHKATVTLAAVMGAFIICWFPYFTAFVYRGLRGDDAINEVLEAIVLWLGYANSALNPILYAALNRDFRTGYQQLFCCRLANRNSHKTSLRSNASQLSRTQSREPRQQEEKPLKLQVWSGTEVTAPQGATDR
Description: PDSP Primary Binding target: HRH2 - Compounds are tested at 10 uM concentration, plate are incubated at room temperature in the dark for 90 minutes. Reaction are stopped by vacuum filtration onto 0.3% polyethyleneimine soaked filter mats using Filtermate harvester. Scintilation cocktail is then melted onto microwave-dried filters on a hot plate and the radio activity is counted in Microbia counter.

[5] = target: T3, Alpha-1B adrenergic receptor (Homo sapiens) (UniProt P35368)
T3 sequence (whole entry): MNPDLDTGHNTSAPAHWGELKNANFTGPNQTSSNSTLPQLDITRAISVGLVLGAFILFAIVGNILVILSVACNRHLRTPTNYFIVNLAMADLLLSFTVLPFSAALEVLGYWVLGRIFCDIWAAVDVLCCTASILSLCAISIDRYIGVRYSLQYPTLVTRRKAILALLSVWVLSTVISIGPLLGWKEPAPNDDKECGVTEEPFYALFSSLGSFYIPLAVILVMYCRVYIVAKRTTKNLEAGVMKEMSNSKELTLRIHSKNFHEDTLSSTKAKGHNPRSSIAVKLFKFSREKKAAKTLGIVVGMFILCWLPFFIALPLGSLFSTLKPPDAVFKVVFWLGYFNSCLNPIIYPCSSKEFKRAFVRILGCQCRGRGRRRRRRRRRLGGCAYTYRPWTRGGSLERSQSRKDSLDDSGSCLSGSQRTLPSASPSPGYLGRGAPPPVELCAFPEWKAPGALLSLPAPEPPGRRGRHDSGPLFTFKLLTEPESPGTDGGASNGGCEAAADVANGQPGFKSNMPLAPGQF
Description: PDSP Primary Binding target: ADRA1B - Compounds are tested at 10 uM concentration, plate are incubated at room temperature in the dark for 90 minutes. Reaction are stopped by vacuum filtration onto 0.3% polyethyleneimine soaked filter mats using Filtermate harvester. Scintilation cocktail is then melted onto microwave-dried filters on a hot plate and the radio activity is counted in Microbia counter.

[6] = target: Kappa-type opioid receptor (Homo sapiens) (UniProt P41145)
Sequence of Kappa-type opioid receptor (Homo sapiens) (P41145 whole entry): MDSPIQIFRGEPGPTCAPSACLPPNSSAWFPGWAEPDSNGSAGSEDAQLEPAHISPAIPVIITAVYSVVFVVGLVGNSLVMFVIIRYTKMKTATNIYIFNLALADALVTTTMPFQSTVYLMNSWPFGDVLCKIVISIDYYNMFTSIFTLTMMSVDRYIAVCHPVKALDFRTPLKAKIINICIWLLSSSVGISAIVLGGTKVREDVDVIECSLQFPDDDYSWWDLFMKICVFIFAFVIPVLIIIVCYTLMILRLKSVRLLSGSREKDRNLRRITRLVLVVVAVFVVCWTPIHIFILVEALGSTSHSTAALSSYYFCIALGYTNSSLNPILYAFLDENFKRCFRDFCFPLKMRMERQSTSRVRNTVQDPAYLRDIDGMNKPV
Description: PDSP Primary Binding target: OPRK1 - Compounds are tested at 10 uM concentration, plate are incubated at room temperature in the dark for 90 minutes. Reaction are stopped by vacuum filtration onto 0.3% polyethyleneimine soaked filter mats using Filtermate harvester. Scintilation cocktail is then melted onto microwave-dried filters on a hot plate and the radio activity is counted in Microbia counter.

[7] = target: Histamine H1 receptor (Homo sapiens) (UniProt P35367)
Sequence of Histamine H1 receptor (Homo sapiens) (P35367 whole entry): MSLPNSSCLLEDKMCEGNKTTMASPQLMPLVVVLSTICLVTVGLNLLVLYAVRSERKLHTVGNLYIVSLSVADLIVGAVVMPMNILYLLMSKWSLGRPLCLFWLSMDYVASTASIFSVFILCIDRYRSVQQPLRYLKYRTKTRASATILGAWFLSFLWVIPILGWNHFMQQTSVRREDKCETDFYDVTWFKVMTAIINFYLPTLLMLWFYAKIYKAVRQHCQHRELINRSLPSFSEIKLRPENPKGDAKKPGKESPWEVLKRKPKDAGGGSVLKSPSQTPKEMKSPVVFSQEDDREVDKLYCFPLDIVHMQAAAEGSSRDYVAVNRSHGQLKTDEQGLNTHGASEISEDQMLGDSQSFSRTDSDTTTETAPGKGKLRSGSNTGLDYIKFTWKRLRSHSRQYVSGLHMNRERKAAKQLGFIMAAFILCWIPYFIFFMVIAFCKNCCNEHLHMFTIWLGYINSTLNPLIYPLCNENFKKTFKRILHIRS
Description: PDSP Primary Binding target: HRH1 - Compounds are tested at 10 uM concentration, plate are incubated at room temperature in the dark for 90 minutes. Reaction are stopped by vacuum filtration onto 0.3% polyethyleneimine soaked filter mats using Filtermate harvester. Scintilation cocktail is then melted onto microwave-dried filters on a hot plate and the radio activity is counted in Microbia counter.

[8] = target: T4, Muscarinic acetylcholine receptor M2 (Homo sapiens) (UniProt P08172)
T4 sequence (whole entry): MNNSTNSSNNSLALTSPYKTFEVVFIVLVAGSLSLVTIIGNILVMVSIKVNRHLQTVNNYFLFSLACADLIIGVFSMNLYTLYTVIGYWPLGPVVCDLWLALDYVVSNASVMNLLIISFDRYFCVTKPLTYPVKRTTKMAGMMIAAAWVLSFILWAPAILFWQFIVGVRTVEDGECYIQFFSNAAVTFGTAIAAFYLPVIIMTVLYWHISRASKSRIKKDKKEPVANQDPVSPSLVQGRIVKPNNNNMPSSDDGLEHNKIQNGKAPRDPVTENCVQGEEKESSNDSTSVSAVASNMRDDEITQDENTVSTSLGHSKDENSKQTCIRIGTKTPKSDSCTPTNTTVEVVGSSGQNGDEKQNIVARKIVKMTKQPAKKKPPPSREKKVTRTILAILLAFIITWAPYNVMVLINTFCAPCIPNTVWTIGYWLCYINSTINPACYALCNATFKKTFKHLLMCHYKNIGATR
Description: PDSP Primary Binding target: CHRM2 - Compounds are tested at 10 uM concentration, plate are incubated at room temperature in the dark for 90 minutes. Reaction are stopped by vacuum filtration onto 0.3% polyethyleneimine soaked filter mats using Filtermate harvester. Scintilation cocktail is then melted onto microwave-dried filters on a hot plate and the radio activity is counted in Microbia counter.

[9] = target: Beta-3 adrenergic receptor (Homo sapiens) (UniProt P13945)
Sequence of Beta-3 adrenergic receptor (Homo sapiens) (P13945 whole entry, looked up): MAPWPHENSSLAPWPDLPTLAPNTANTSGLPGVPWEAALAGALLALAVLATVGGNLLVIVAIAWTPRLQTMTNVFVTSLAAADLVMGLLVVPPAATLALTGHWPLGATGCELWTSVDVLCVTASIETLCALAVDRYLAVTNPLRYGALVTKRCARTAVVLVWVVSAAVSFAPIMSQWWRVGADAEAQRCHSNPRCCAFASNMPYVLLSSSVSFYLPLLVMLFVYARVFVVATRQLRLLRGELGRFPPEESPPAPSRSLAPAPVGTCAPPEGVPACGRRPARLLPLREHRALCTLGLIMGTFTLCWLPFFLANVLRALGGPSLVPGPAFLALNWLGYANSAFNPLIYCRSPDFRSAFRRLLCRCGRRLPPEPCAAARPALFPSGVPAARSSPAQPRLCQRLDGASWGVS
Description: PDSP Primary Binding target: ADRB3 - Compounds are tested at 10 uM concentration, plate are incubated at room temperature in the dark for 90 minutes. Reaction are stopped by vacuum filtration onto 0.3% polyethyleneimine soaked filter mats using Filtermate harvester. Scintilation cocktail is then melted onto microwave-dried filters on a hot plate and the radio activity is counted in Microbia counter.

[10] = target: 5-hydroxytryptamine receptor 6 (Homo sapiens) (UniProt P50406)
Sequence of 5-hydroxytryptamine receptor 6 (Homo sapiens) (P50406 whole entry): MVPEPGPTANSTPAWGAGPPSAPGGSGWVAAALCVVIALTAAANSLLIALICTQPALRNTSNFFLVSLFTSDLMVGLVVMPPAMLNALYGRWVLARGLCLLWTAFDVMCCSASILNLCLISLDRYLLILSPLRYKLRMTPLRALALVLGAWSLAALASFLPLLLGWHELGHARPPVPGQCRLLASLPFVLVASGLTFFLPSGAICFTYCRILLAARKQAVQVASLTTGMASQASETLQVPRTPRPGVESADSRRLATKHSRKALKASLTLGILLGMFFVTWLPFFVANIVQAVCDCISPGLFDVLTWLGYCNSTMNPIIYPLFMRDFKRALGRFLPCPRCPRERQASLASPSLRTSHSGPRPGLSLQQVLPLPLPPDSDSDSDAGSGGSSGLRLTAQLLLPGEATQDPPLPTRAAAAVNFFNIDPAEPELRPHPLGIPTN
Description: PDSP Primary Binding target: HTR6 - Compounds are tested at 10 uM concentration, plate are incubated at room temperature in the dark for 90 minutes. Reaction are stopped by vacuum filtration onto 0.3% polyethyleneimine soaked filter mats using Filtermate harvester. Scintilation cocktail is then melted onto microwave-dried filters on a hot plate and the radio activity is counted in Microbia counter.

[11] = target: T5, Alpha-2A adrenergic receptor (Homo sapiens) (UniProt P08913)
T5 sequence (whole entry): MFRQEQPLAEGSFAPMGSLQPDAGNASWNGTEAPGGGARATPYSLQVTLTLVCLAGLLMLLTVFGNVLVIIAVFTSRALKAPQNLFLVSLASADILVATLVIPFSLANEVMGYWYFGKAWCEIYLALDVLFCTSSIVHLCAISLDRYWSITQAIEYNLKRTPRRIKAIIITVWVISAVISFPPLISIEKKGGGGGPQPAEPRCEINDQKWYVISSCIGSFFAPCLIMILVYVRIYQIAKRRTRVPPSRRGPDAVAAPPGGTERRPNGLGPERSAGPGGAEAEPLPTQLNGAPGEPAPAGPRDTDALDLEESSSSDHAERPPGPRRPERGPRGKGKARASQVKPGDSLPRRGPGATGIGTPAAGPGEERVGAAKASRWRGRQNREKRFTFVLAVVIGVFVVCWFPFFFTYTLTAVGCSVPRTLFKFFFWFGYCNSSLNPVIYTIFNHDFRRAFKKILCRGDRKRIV
Description: PDSP Primary Binding target: ADRA2A - Compounds are tested at 10 uM concentration, plate are incubated at room temperature in the dark for 90 minutes. Reaction are stopped by vacuum filtration onto 0.3% polyethyleneimine soaked filter mats using Filtermate harvester. Scintilation cocktail is then melted onto microwave-dried filters on a hot plate and the radio activity is counted in Microbia counter.

Sequence of D(1B) dopamine receptor (Homo sapiens) (P21918 whole entry): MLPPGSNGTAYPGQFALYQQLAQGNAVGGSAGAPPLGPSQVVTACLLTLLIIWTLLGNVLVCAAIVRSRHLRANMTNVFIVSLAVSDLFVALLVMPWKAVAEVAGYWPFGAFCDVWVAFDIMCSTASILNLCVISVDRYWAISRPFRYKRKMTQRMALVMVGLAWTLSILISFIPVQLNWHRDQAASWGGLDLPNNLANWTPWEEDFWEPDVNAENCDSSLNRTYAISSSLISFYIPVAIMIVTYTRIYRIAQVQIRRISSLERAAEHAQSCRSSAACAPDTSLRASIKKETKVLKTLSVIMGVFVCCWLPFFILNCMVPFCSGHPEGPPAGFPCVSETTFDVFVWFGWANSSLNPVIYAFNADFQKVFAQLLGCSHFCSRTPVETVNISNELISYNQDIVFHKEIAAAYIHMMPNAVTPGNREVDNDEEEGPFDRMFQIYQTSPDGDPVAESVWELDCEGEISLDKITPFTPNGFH

Row | SMILES | inhibition [1] [%] | inhibition [2] [%] | inhibition [3] [%] | inhibition [4] [%] | inhibition [5] [%] | inhibition [6] [%] | inhibition [7] [%] | inhibition [8] [%] | inhibition [9] [%] | inhibition [10] [%] | inhibition [11] [%]
1 | N#Cc1ccc(NC(=O)Nc2ccccc2Br)c2nn[nH]c12 | -7.18 | 33.1 | -7.75 | 17.7 | 13.2 | 25.6 | 0.77 | 29.7 | 75 | – | –
2 | CC(C)NC(=O)c1ccc(C#Cc2ccncc2)cn1 | – | 30.9 | 13.3 | 25.7 | – | -1.6 | – | 53.1 | 29.8 | -2.79 | –
3 | CNc1nc(NCc2ccc(NS(C)(=O)=O)cc2Cl)cc(-c2ccccn2)n1 | – | 9.44 | 12.4 | 18 | 26.4 | 73.2 | 12 | -5.61 | 15 | 47 | 43.2
4 | CC(C)Oc1ccccc1C(=O)Nc1ccccc1C(=O)Nc1cccc(S(=O)(=O)C(F)(F)F)c1 | 4.49 | -2.68 | – | 36 | -9.86 | – | 2.1 | -6.99 | 1.49 | 36.8 | –
5 | CCOC(=O)c1cc(C#N)c(N2CCC(C(=O)NS(=O)(=O)Cc3ccccc3)CC2)nc1C | – | 18.3 | 29.5 | 17.2 | -8.97 | 3.74 | -6.11 | 68.1 | 21.2 | 9.24 | –
6 | CCC[C@H](Oc1cc(C)c(-n2cc(C(F)(F)F)cn2)c(C)c1)c1ccc(C(=O)NCCC(=O)O)cc1 | 11.7 | 3.44 | – | -8.24 | – | 40.7 | 7.56 | -6.26 | 65.4 | -2.41 | –
7 | Cc1nc(C#Cc2ccnc(Cl)c2)c(C)n1-c1ccc(OC(F)(F)F)cc1 | 6 | 15.4 | 20.7 | 10.4 | – | 5.17 | -4.73 | -0.78 | 63 | -0.41 | 23.9
8 | Cc1cc([C@@H](C)Nc2cccc(-c3cc(C)c(C(=O)N[C@@H](C)C(=O)O)c(C)c3)c2)ccc1Cl | 5.13 | 7.41 | – | 22.5 | – | 0.51 | 2.32 | 2.88 | 70.7 | -2.64 | –
9 | FC(F)(F)c1cccc(-c2noc(-c3cc(-c4ccccc4)c(C(F)(F)F)s3)n2)c1 | – | -0.35 | 1.55 | 16.3 | – | 46.5 | 17 | -7.48 | 23.6 | -0.25 | -2.79
10 | CO[C@@H]1COCC[C@@H]1N[C@@H]1CC[C@@](C(=O)N2CCc3ncc(C(F)(F)F)cc3C2)(C(C)C)C1 | 0.19 | – | -8.81 | 14.9 | 2.58 | 25.9 | 25.1 | 8.25 | 47.5 | 3.16 | –
11 | O=C(O)C1CN(Cc2ccc(OCc3ccc(Cl)c(Cl)c3)cc2)C1 | -5.98 | 29.6 | -5.42 | 29.6 | – | -7.92 | 86 | -5.07 | -2.67 | 5.45 | 29.7
12 | O=C(O)CC1CCC2(CC1)CCN(c1cc(OC(F)(F)F)ccc1Cl)CC2 | -2.48 | 7.8 | – | -4.3 | 0.25 | 10.9 | 31.1 | 27.1 | 17.5 | 14.2 | –
13 | Clc1ccc(CCCOCCCN2CCCCC2)cc1 | – | 76.8 | 0.84 | 33 | 5.07 | 40.4 | 68.7 | 34.5 | 1.84 | 39.1 | -7.75
14 | c1cc(CN2CCCNCCNCCCNCC2)ccc1CN1CCCNCCNCCCNCC1 | -5.65 | 41.7 | -0.54 | 0.23 | 42.2 | 13.8 | -5.42 | 67.7 | 34.5 | – | 7.87
15 | O=C1O[C@]2(CC[C@H](C(=O)Nc3ccn(-c4ccccc4F)n3)CC2)c2cnccc21 | -8.27 | – | – | 2.76 | 3.66 | -6.46 | 7.78 | -5.81 | 3.84 | 0.42 | -9.69
16 | CN1CCCC(n2nc(Cc3ccc(Cl)cc3)c3ccccc3c2=O)CC1 (centres undefined) | 24.1 | 83.7 | 88.2 | 22.8 | 72.7 | – | – | 36.1 | 61.5 | 74.7 | 62.3
17 | CC1=C2C[C@H]3[C@@H](CC=C4C[C@@H](O)CC[C@@]43C)[C@@H]2CC[C@]12O[C@@H]1C[C@H](C)CN[C@H]1[C@H]2C | 1.59 | -3.11 | -8.81 | 20.5 | 13.7 | 1.76 | 40.4 | -1.88 | 38.6 | – | -1.14
